From ChEMBL document CHEMBL5120783, “Procyanidins and Phlobatannins from the Twigs of Rosa multiflora and Their Neuroprotective Activity” (J Nat Prod, 2022)

Key:
BV-2 = assay: Anti-neuroinflammatory activity in mouse BV-2 cells assessed as inhibition of LPS-induced NO production; type: functional, cell-based
[1] = Cytotoxicity against mouse BV-2 cells assessed as cell viability at 25 uM by MTT assay; type: toxicity, cell-based; conditions: read-out: Activity
C6 = assay: Neuroprotective activity in rat C6 cells assessed as NGF secretion level at 25 uM measured after 24 hrs by ELISA; type: functional
[2] = Cytotoxicity against rat C6 cells assessed as cell viability at 25 uM by MTT assay; type: toxicity, cell-based; conditions: read-out: Activity

SMILES	IC50 (BV-2)	viability at 25 µM [1]	Activity (C6)	viability at 25 µM [2]
OC[C@H]1O[C@@H](O[C@H]2c3ccc(O)cc3O[C@@H](c3ccc(O)cc3)[C@@H]2O)[C@H](O)[C@@H](O)[C@@H]1O	51.5 µM	98.9%	103.8%	102%
CCCCC/C=C/C(=O)CCc1ccc(O)c(OC)c1 [SHOGAOL]	–	–	118.5%	116%
CNC(=N)NCCC[C@H](N)C(=O)O [TILARGININE]	27.2 µM	104%	–	–

More lines, main results first:

IC50 (BV-2)	SMILES	viability at 25 µM [1]	Activity (C6)	viability at 25 µM [2]
36.9 µM	COc1cc([C@@H]2Oc3cc(CCCO)cc(O)c3O[C@H]2CO)ccc1O	92.4%	–	–
50.6 µM	COc1cc([C@@H]2Oc3cc(CCCO)cc(O)c3O[C@H]2CO)ccc1O[C@@H]1O[C@H](CO)[C@@H](O)[C@H](O)[C@H]1O	95.9%	107.6%	99.2%
